Here are results for 4 molecules from patent US20250136601A1 (priority 2022, published 2025).

The conditions of data set [1]: for AUMC0-inf / AUMC0-t / Kel: mice.
Method: (§1) The concentration of the compound in mouse plasma was determined using LC-MS/MS, and the relevant pharmacokinetic parameters were calculated to investigate the pharmacokinetic characteristics of the compound in mice.
(§2) Experimental design: 60 male C57 mice (purchased from Suzhou JOINN Laboratory Animal Co., Ltd.) were randomly divided into groups based on weight, with 3 mice per group. The mice were fasted with water ad libitum for 12 to 14 hours one day before test-article administration and fed 4 hours after the administration. The route of administration was intraperitoneal (IP), with a dosing concentration of 1 mg/mL, and a solvent formulation of 10% DMSO+90% saline.
(§3) Sample collection: 0.1 mL of blood was collected from the orbit under isoflurane anesthesia before and after test-article administration, transferred to EDTA K2 tubes, and placed on an ice bath. The samples were centrifuged at 5000 rpm for 10 minutes at 4° C., and the plasma was collected. […] Prior to analysis, all plasma samples were stored at −80° C.
(§4) Data processing: Drug concentrations in plasma and brain tissues were measured using LC-MS (API4000QTRAP triple quadrupole tandem mass spectrometer, equipped with an electrospray ionization source (ESI)). The data collection and control system software utilized was Analyst 1.5.1 (Applied Biosystems). The sample peak integration in the spectrum was conducted automatically; the ratio of the sample peak area to the internal standard peak area was used as an indicator to perform regression with the concentration of the sample. Regression method: Linear regression with a weighting factor of 1/X^2. Pharmacokinetic parameters were analyzed using a non-compartmental model in WinNonlin Professional v6.3 (Pharsight, USA). Cmax is the measured maximum plasma concentration, the area under the plasma concentration-time curve (AUC(0→0)) was calculated by the trapezoidal method, and Tmax is the time to reach peak plasma concentration after administration. Experimental data are presented as “Mean±Standard Deviation” (Mean±SD, n≥3) or “Mean” (n=2).
Data set [2] concerns corticosterone-exposed mice. As to the kind of experiment: tail suspension test after 21 days of corticosterone exposure. The data set is classed as in vivo, Male C57BL/6 mice. On the procedure:
Antidepressant efficacy test method: Male C57BL/6 mice (8 weeks old, purchased from Shanghai Lingchang Biotech Co., Ltd.) were administered a solution of corticosterone in their drinking water at a concentration of 25 μg/mL using drinking water bottles for 21 days. Mice were maintained on a 12-hour light cycle. Corticosterone-containing drinking water was refreshed every other day for the first two weeks, and gradually replaced with corticosterone-free drinking water every two days for the last week. […] TST procedure: mice in the control group and the administration group were suspended by their tails with tape for 6 minutes, and their behavior was recorded by a video camera. The immobility time during the last 4 minutes was manually timed and assessed by an observer who was unaware of the treatment conditions.

Data set [3] deals with head-twitch response in mice. In kind it is in vivo, C57BL/6J mice. As to conditions: intraperitoneal, at all doses tested, first 30 minutes. An excerpt:
Method: The head-twitch response in mice was detected via oscillatory signals to characterize hallucinogenic effects. Mice (strain C57BL/6J, purchased from Shanghai Lingchang Biotech Co., Ltd.) were anesthetized with 2% isoflurane. A small portion of the scalp was removed from the center of the dorsal cranium. A custom-made small neodymium magnet (4 mm×4 mm×2 mm) was attached to the center of the dorsal cranium using dental resin. The magnet N-S poles were kept parallel to the dorsoventral aspect of the implant. The mice were allowed to recover for 1 week before testing. To record precise head movements, the mice were placed in a glass beaker with a diameter of 12 cm, surrounded by 150 turns of #30 enameled copper wire. The output signal from the coil was recorded using a PowerLab/4SP instrument installed with LabChart V8.1.16 software. Coil voltage was amplified, low-pass filtered at 10 kHz to remove radio frequency interference, and sampled at 40 kHz. For the detection of head-twitch response in mice, LabChart data were processed with a digital band-pass filter at 40 to 200 Hz. The head-twitch response in mice was identified by searching for sinusoidal wavelets that met the following criteria: 1) containing more than two bipolar peaks; 2) amplitude exceeding background noise level; 3) duration less than 120 milliseconds. 1 hour prior to the test, the mice were transferred to the test room for acclimatization. Subsequently, the mice were placed in the beaker for 30 minutes, and baseline head-twitch response values were recorded. Immediately after baseline recording, the mice were injected intraperitoneally with the test compound, and head-twitch response values were recorded for 1 to 2 hours post-dose, depending on the compound used. Statistical values were taken from the first 30 minutes.

Data set [4] can be described thus: in vivo. As to conditions: male, C57, mouse, ip.
Method: as §1, §2, §3, §4
Data set [5] addresses T1, 5-HT2A receptor (Homo sapiens (Human), UniProt P28223). Kind of data set: cell-based. The data set is classed as cell-based. As to conditions: for Emax: HEK-293T, read-out: β-arrestin2 signaling agonistic activity (percentage in parentheses). On the procedure: On the second day, the confluent cells from a 6 cm culture dish were digested and reseeded into a 96-well plate at a volume of 100 μL of culture medium per well. On the third day, the drugs were added for testing. The 96-well plate was taken out from the cell incubator to decant the culture medium. 40 μL of the substrate coelenterazine 400a (final concentration 5 μM) was added to each well, and then 20 μL of different drugs were added sequentially from left to right, ensuring that the final concentration of the drug decreased gradually from bottom to top, with two replicates per treatment. Finally, the prepared samples were loaded on a plate reader for signal quantification. The readout values reflected the recruitment of β-arrestin2 to the membrane or the dissociation of G protein trimer. The former indicated the degree of activation of the downstream β-arrestin2 signaling pathway mediated by the 5-HT2A receptor, and the latter indicated the degree of activation of the downstream G protein signaling pathway mediated by the 5-HT2A receptor.

The target of data set [6] is T1, 5-HT2A receptor. Kind of data set: radioligand competitive binding assay, [3H]-LSD, 293T membranes.
Data set [7] concerns the target dopamine D2 receptor (Homo sapiens (Human), UniProt P14416). Kind of data set: radioligand competitive binding assay, [3H]-Methylspiperone, 293T membranes. As to conditions: affinity for the dopamine D2 receptor.
Method: Method: The affinity of the compounds of the present disclosure for the dopamine D2 receptor was determined using a radioligand competitive binding assay as follows. In the first step, a cell membrane component containing dopamine D2 receptor was prepared. […] 48 hours post-transfection, the 10 cm culture dish was taken out from the cell incubator and the cultured cells had expressed the dopamine D2 receptor. The culture medium was aspirated using a vacuum pump, and 3 mL of lysis buffer was added to each culture dish. The cells were then placed in a cold room at 4° C. for 10 minutes. After the cells were detached, they were transferred to a 15 mL centrifuge tube and centrifuged at 1500 rpm for 5 minutes at 4° C., and the supernatant was discarded. The cell pellet was transferred to a tissue homogenizer, and 3 mL of lysis buffer was added. Sufficient grinding was applied to break the cells. The cell suspension was then equally aliquoted into several Eppendorf tubes and centrifuged at 12000 rpm for 5 minutes at 4° C., and the supernatant was discarded. The resulting precipitate was the cell membrane component containing the dopamine D2 receptor. […] The machine readout value reflected the amount of [3H]-Methylspiperone bound on the membrane, and after further data processing, the affinity Ki values of different compounds for the dopamine D2 receptor were obtained.
The subject of data set [8] is depressive episodes associated with bipolar I or II disorder. To be noted: Calabrese et al. 2021; cited from earlier work.
Data set [9] has as its target postsynaptic D2 receptor (Homo sapiens (Human), UniProt P14416). As to conditions: postsynaptic D2 receptor antagonist; Li et al., J Med Chem 2014; cited from earlier work.

“And” between values parts separate entries of the source, which are not always exact repeats. Identical values can stand only once. Like-named read-outs stand apart in the source and are kept apart here.

T1 sequence (P28223 whole entry): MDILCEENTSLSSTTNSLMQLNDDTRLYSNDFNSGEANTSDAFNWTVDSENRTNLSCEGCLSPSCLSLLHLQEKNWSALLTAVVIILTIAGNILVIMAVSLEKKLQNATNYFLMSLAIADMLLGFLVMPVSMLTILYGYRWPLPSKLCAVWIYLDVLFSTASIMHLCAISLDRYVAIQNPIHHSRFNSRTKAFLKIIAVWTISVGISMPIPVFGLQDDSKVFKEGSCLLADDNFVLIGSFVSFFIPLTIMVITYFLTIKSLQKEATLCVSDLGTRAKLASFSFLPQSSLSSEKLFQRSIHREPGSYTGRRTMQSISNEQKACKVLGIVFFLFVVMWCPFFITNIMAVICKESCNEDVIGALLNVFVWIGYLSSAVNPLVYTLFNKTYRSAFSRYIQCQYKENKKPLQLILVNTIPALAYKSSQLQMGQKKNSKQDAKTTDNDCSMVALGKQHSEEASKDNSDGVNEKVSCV
Sequence of dopamine D2 receptor (P14416 whole entry, species assumed): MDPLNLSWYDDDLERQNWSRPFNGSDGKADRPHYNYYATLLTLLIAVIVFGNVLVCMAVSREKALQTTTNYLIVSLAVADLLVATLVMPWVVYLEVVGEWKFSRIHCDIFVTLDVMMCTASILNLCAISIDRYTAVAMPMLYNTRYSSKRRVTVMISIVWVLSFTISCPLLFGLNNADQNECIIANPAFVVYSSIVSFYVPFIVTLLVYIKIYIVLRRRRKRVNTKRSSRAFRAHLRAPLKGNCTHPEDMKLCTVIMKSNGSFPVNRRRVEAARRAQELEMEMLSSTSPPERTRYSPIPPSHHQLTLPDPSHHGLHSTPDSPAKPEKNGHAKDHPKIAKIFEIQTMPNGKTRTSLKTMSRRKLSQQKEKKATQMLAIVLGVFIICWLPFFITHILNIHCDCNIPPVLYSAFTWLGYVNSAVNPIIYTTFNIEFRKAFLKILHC
Sequence of postsynaptic D2 receptor (P14416 whole entry): as the sequence (P14416 whole entry, species assumed) above

By MRT is commonly meant a mean duration of stay, worked out from the concentration-time curve. Usually Cmax stands for the highest concentration seen after dosing. Usually Tmax stands for the time at which the peak concentration occurs. For orientation: half-life means how long it takes for the measured level to halve. Low readings indicate rapid decline, high ones slow decline. In the case of `COc1ccccc1CCCN1CC[C@@H]2[C@H](C1)c1cccc3c1N2CCO3` (single isomer, unassigned) [Compound I-23], the AUMC0-inf is 1698 h · h · ng · g^−1 in data set [1] (brain, 5 mg/kg IP) and 794 h · h · ng · mL^−1 in data set [1] (plasma, 5 mg/kg IP). The AUMC0-t worked out at 1645 h · h · ng · g^−1 in data set [1] (brain, 5 mg/kg IP) and 769 h · h · ng · mL^−1 in [1] (plasma, 5 mg/kg IP). Moreover, the Kel is 0.630 h⁻¹ in [1] (brain, 5 mg/kg IP) and 0.678 h⁻¹ in [1] (plasma, 5 mg/kg IP). Further, the MRT came out at 0.932 h in data set [1] (male, C57, mouse, in vivo, ip, 5 mg/kg) and 1.47 h in [4] (5 mg/kg). In addition, the AUC0-t in [1] (mouse, in vivo, ip, 5 mg/kg) worked out at 1816 ng·h/g; in data set [4] (5 mg/kg), 537 ng·h/mL. For the same molecule, the “antidepressant effect in the mouse tail suspension test” value was “remained significant” in data set [2] (10 mg/kg single-injection group, after 7 days); “remained significant” in data set [2] (10 mg/kg single-injection group, after 14 days); “significant antidepressant effect” in data set [2] (one day after a single administration). Further, the “hallucinogenic effects (head-twitch response)” value (“hallucinogenic effects” for short) in data set [3] is reported as “did not induce hallucinogenic effects”. Besides, the Cmax in data set [4] (5 mg/kg) was 272 ng/mL and 1420 ng/g. Besides, the Tmax in data set [4] (5 mg/kg) was found to be 0.5 h. Further, the half-life is 1.1 h in data set [4] (5 mg/kg, T1/2, brain, 5 mg/kg IP, mice) and 1.02 h in data set [4] (5 mg/kg, T1/2, plasma, 5 mg/kg IP, mice).
In general, Ki refers to a measure of affinity in units of concentration, obtained from inhibition or displacement. Consider `COc1ccccc1CCN1CC[C@H]2[C@@H](C1)c1cccc3c1N2CCN3C` [Compound I-3], for which the Emax in data set [5] worked out at 39%. Besides, the “Gq signaling agonistic activity (percentage in parentheses)” value in data set [5] (value in parentheses) is 20.2%. Moreover, the “hallucinogenic effects” value in data set [3] was “did not induce hallucinogenic effects”. Further, the Ki in data set [6] was less than 100 nM; in data set [7], 1550 nM.
As a reminder, the EC50 is the concentration at which the effect is half-maximal. High values mean weaker potency, low ones greater potency. `COc1ccccc1CCCN1CC[C@H]2[C@@H](C1)c1cccc3c1N2CCN3C` [Compound I-10]: the AUMC0-inf in data set [1] (brain, 10 mg/kg IP) is listed as 2054 h · h · ng · g^−1; in data set [1] (plasma, 10 mg/kg IP) it was 1230 h · h · ng · mL^−1. For the same molecule, the AUMC0-t in [1] (brain, 10 mg/kg IP) was determined as 1979 h · h · ng · g^−1; in data set [1] (plasma, 10 mg/kg IP), 1169 h · h · ng · mL^−1. For the same molecule, the Kel in data set [1] (brain, 10 mg/kg IP) was found to be 0.865 h⁻¹; in data set [1] (plasma, 10 mg/kg IP), 0.654 h⁻¹. Besides, the AUC0-inf in data set [1] (mouse, in vivo, ip, 10 mg/kg) worked out at 1346 ng·h/g; in [4] (10 mg/kg), 582 ng·h/mL. Also, the AUC0-t stood at 1335 ng·h/g in [1] (mouse, in vivo, ip, 10 mg/kg) and 576 ng·h/mL in data set [4] (10 mg/kg). For the same molecule, the midpoint of the response in data set [5], the EC50, lay at 204 nM. In data set [5], the Emax is 12.7%. Besides, in [3], the “hallucinogenic effects” value was “did not induce hallucinogenic effects”. Besides, the values for the Ki in data set [6] and in [7] were less than 100 nM and 1860 nM, respectively. Moreover, the Cmax in data set [4] (10 mg/kg) was 225 ng/mL and 566 ng/g. Besides, the MRT came to 1.53 h in data set [4] (10 mg/kg, brain, 10 mg/kg IP, mice) and 2.11 h in data set [4] (10 mg/kg, plasma, 10 mg/kg IP, mice). Also, the half-life in data set [4] (10 mg/kg, T1/2, brain, 10 mg/kg IP, mice) is 0.801 h; in data set [4] (10 mg/kg, T1/2, plasma, 10 mg/kg IP, mice), 1.06 h. The Tmax turned out to be 0.5 h in [4] (10 mg/kg, tmax, brain, 10 mg/kg IP, mice) and 0.083 h in [4] (10 mg/kg, tmax, plasma, 10 mg/kg IP, mice).
For the molecule `CN1CCN2c3c(cccc31)[C@@H]1CN(CCCC(=O)c3ccc(F)cc3)CC[C@@H]12` [lumateperone, Lumateperone], the patient response rate in [8] was 51.1%. Moreover, the Ki in [9] is 32 nM.
